Results reported in ChEMBL document CHEMBL4190174 (2016).
Activity calls are given as the source filed them. The rule behind the calls is not given here.

Assays:
U373 MG [1] = experiment: Growth inhibition of empty vector transfected human U373 cells after 7 days by MTT assay; type: functional, U-373MG ATCC; settings: 168 h
SNB-19 [2] = experiment: Growth inhibition of MGMT-transfected human SNB19 cells after 7 days by MTT assay; type: functional; settings: SNB-19, 168 h
SNB-19 [3] = experiment: Growth inhibition of empty vector transfected human SNB19 cells after 7 days by MTT assay; type: functional; settings: SNB-19, 168 h
U373 MG [4] = experiment: Growth inhibition of MGMT-transfected human U373 cells after 7 days by MTT assay; type: functional, U-373MG ATCC; settings: 168 h
DNA [5] = experiment: Induction of Escherichia coli pBR322 DNA interstrand cross linking using 5'-end labeled [gamma32P]ATP primer at <=1000 uM after 2 to 40 hrs by PAGE based autoradiographic method; type: nucleic-acid assay
Escherichia coli = experiment: Induction of Escherichia coli linearized pBR322 DNA alkylation at clusters of 3/5 guanines using 5'-end labeled [gamma32P]ATP primer after 2 hrs by PAGE based taq polymerase stop assay
[6] = Growth inhibition of human SNB19VR cells by MTT assay; type: functional
dsDNA [7] = experiment: Induction of double stranded DNA break in MGMT-transfected human U373 cells assessed as increase in gamma-H2AX level at 100 uM after 72 hrs by flow cytometry relative to control; type: cell-based
DNA [8] = experiment: Induction of Escherichia coli pBR322 DNA cleavage assessed as covalent modification at N-7 guanine at 10 to 1000 uM after 2 hrs by PAGE based autoradiographic method; type: nucleic-acid assay
[9] = Growth inhibition of human U373VR cells by MTT assay; type: functional
DLD-1 [10] = experiment: Growth inhibition of human DLD1 cells harboring hMSH6 mutation relative to temozolomide; type: functional
HCT-116 [11] = experiment: Growth inhibition of human HCT116 cells harboring hMLH1 mutation relative to temozolomide; type: functional
dsDNA [12] = experiment: Induction of double stranded DNA break in MGMT-transfected human U373 cells assessed as increase in gamma-H2AX level at 100 uM after 72 hrs by flow cytometry; type: cell-based
SNB-19 [13] = experiment: Ratio of GI50 for MGMT-transfected human SNB19 cells to GI50 for empty vector transfected human SNB19 cells; type: functional
SNB-19 [14] = experiment: Potency index, ratio of temozolomide GI50 to compound GI50 for empty vector transfected human SNB19 cells; type: functional
SNB-19 [15] = experiment: Potency index, ratio of temozolomide GI50 to compound GI50 for MGMT-transfected human SNB19 cells; type: functional
U373 MG [16] = experiment: Ratio of GI50 for MGMT-transfected human U373 cells to GI50 for empty vector transfected human U373 cells; type: functional, U-373MG ATCC
U373 MG [17] = experiment: Potency index, ratio of temozolomide GI50 to compound GI50 for MGMT-transfected human U373 cells; type: functional, U-373MG ATCC
U373 MG [18] = experiment: Potency index, ratio of temozolomide GI50 to compound GI50 for empty vector transfected human U373 cells; type: functional, U-373MG ATCC
DLD-1 [19] = experiment: Growth inhibition of human DLD1 cells harboring hMSH6 mutation; type: functional
[20] = test system: Panel NCI-60 (60 carcinoma cell lines); experiment: Growth inhibition of human NCI60 cells after 48 hrs by MTT assay; type: functional
HCT-116 [21] = experiment: Growth inhibition of human HCT116 cells harboring hMLH1 mutation; type: functional

Row | Compound | GI50 (U373 MG [1]) | GI50 (SNB-19 [2]) | GI50 (SNB-19 [3]) | GI50 (U373 MG [4]) | also measured
1 | CC(=O)OCn1nnc2c(C(N)=O)ncn2c1=O | 11.8 µM | 40.4 µM | 48.3 µM | 39.4 µM | 
2 | NC(=O)c1ncn2c(=O)n(C3CC3)nnc12 | 306 µM | > 500 µM | 428 µM | 360 µM | 
3 | NC(=O)c1ncn2c(=O)n(CC3CC3)nnc12 | 386 µM | 223 µM | 286 µM | 149 µM | 
4 | CNC(=O)Cn1nnc2c(C(N)=O)ncn2c1=O | 260 µM | 246 µM | 65.8 µM | 263 µM | 
5 | C[S+]([O-])Cn1nnc2c(C(N)=O)ncn2c1=O (stereo unspecified) | 13.7 µM | 20.1 µM | 26.8 µM | 14.4 µM | 
6 | CN(C)C(=O)Cn1nnc2c(C(N)=O)ncn2c1=O | 85.1 µM | 73.4 µM | 67.7 µM | 92.5 µM | 
7 | NC(=O)c1nc[nH]c1N/N=N/CC1CC1 | > 500 µM | > 500 µM | > 500 µM | > 500 µM | 
8 | NC(=O)CCn1nnc2c(C(N)=O)ncn2c1=O | 138 µM | 398 µM | 321 µM | 355 µM | 
9 | CC#CCn1nnc2c(C(N)=O)ncn2c1=O | 36.5 µM | 37.6 µM | 39.6 µM | 33 µM | 
10 | NC(=O)Cn1nnc2c(C(N)=O)ncn2c1=O | 65.4 µM | 95.3 µM | 38 µM | 72.3 µM | 
11 | C=CCn1nnc2c(C(N)=O)ncn2c1=O | 141 µM | 239 µM | 258 µM | 199 µM | 
12 | CCOC(=O)Cn1nnc2c(C(N)=O)ncn2c1=O | 63.2 µM | 61.1 µM | 52.4 µM | 55.6 µM | 
13 | NC(=O)c1ncn2c(=O)n(CCO)nnc12 | 288 µM | 417 µM | 204 µM | 322 µM | 
14 | CS(=O)(=O)Cn1nnc2c(C(N)=O)ncn2c1=O | 20.2 µM | 18.3 µM | 13.8 µM | 7.5 µM | 
15 | NC(=O)c1ncn2c(=O)n(CCl)nnc12 | 29.3 µM | 31 µM | 34.6 µM | 24.4 µM | 
16 | NC(=O)c1ncn2c(=O)n(CC(=O)N3CCOCC3)nnc12 | 243 µM | 102 µM | 62.3 µM | 132 µM | 
17 | NC(=O)c1ncn2c(=O)n(COCc3ccccc3)nnc12 | 16.5 µM | 48.5 µM | 52.2 µM | 28.8 µM | 
18 | CC(C)(C)C(=O)OCn1nnc2c(C(N)=O)ncn2c1=O | 13.2 µM | 28 µM | 45 µM | 28.9 µM | 
19 | C[Si](C)(C)C#CCn1nnc2c(C(N)=O)ncn2c1=O | 30.3 µM | 39.5 µM | 39.1 µM | 30.7 µM | 
20 | C#CCn1nnc2c(C(N)=O)ncn2c1=O | 37.6 µM | 37.8 µM | 35.6 µM | 36.1 µM | Activity (DNA [5]): inactive; Activity (Escherichia coli): Dose-dependent effect; GI50 [6]: < 50 µM; fold change (FC) (dsDNA [7]): > 2; Activity (DNA [8]): Active; GI50 [9]: < 50 µM; fold change (FC) (DLD-1 [10]): >10; fold change (FC) (HCT-116 [11]): >10; Activity (dsDNA [12]): Active

Row | Compound | GI50 (U373 MG [1]) | GI50 (SNB-19 [2]) | GI50 (SNB-19 [3]) | GI50 (U373 MG [4]) | also measured
21 | COCC/N=N/Nc1[nH]cnc1C(N)=O | > 500 µM | > 500 µM | > 500 µM | > 500 µM | 
22 | NC(=O)c1ncn2c(=O)n(CCCl)nnc12 [MITOZOLOMIDE] | 22 µM | 68.4 µM | 10 µM | 40.3 µM | RatioGI50 (SNB-19 [13]): >2; RatioGI50 (SNB-19 [14]): >3; RatioGI50 (SNB-19 [15]): 10; RatioGI50 (U373 MG [16]): >2; RatioGI50 (U373 MG [17]): 10; RatioGI50 (U373 MG [18]): >3
23 | CCOC(=O)C/N=N/Nc1[nH]cnc1C(N)=O | 30.3 µM | 37.4 µM | 33.6 µM | 23.4 µM | 
24 | C#CC/N=N/Nc1[nH]cnc1C(N)=O | 32 µM | 33.9 µM | 39.1 µM | 35.6 µM | Activity (Escherichia coli): Dose-dependent effect; fold change (FC) (dsDNA [7]): > 2; Activity (DNA [8]): Active; Activity (dsDNA [12]): Active
25 | NC(=O)c1nc[nH]c1N/N=N/CCO | 383 µM | > 500 µM | 441 µM | 336 µM | 
26 | CSCn1nnc2c(C(N)=O)ncn2c1=O | 59 µM | 151 µM | 107 µM | 56.5 µM | 
27 | NC(=O)c1nc[nH]c1N/N=N/C1CC1 | > 500 µM | > 500 µM | > 500 µM | > 500 µM | 
28 | CCOC(=O)C=[N+]=[N-] | > 800 µM | > 800 µM | > 800 µM | > 800 µM | 
29 | COC(=O)C/N=N/Nc1[nH]cnc1C(N)=O | 32.6 µM | 49.7 µM | 47.7 µM | 46.4 µM | 
30 | Cn1nnc2c(C(N)=O)ncn2c1=O [TEMOZOLOMIDE] | 72.9 µM | 526 µM | 45.6 µM | 395 µM | Activity (DNA [5]): inactive; GI50 (DLD-1 [19]): > 500 µM; RatioGI50 (SNB-19 [13]): 11; GI50 [20]: > 100 µM; GI50 [6]: 280 µM; RatioGI50 (U373 MG [16]): 5; GI50 [9]: 289 µM; GI50 (HCT-116 [21]): > 500 µM
31 | NC(=O)c1ncn2c(=O)n(CC(=O)O)nnc12 | 69.5 µM | 296 µM | 265 µM | 140 µM | 
32 | N#CC/N=N/Nc1[nH]cnc1C(N)=O | 106 µM | 271 µM | 111 µM | 242 µM | 
33 | NC(=O)c1nc[nH]c1N/N=N/CC(F)F | 205 µM | 70.3 µM | 68.8 µM | 248 µM | 
34 | COC(=O)Cn1nnc2c(C(N)=O)ncn2c1=O | 32.1 µM | 49 µM | 47.5 µM | 46.4 µM | 
35 | COCn1nnc2c(C(N)=O)ncn2c1=O | 26 µM | 37.9 µM | 30.8 µM | 33.1 µM | 
36 | NC(=O)c1nc[nH]c1N/N=N/CC(F)(F)F | 209 µM | 131 µM | 68.8 µM | 423 µM | 
37 | NC(=O)c1ncn2c(=O)n(CCC(=O)O)nnc12 | > 250 µM | > 250 µM | > 250 µM | > 250 µM | 
38 | NC(=O)c1ncn2c(=O)n(CO)nnc12 |  | 42.1 µM | 46.2 µM |  | 
39 | CCOC(=O)CCn1nnc2c(C(N)=O)ncn2c1=O | 129 µM | 255 µM | 367 µM | 143 µM | 
